From patent US20130217722A1, “NOVEL COMPOUND USEFUL FOR THE TREATMENT OF DEGENERATIVE AND INFLAMMATORY DISEASES” (priority 2012, published 2013)
Several values for one entry are separate records, joined by “and”; a condition that tells them apart may be missing. Equal entries are not always repeated.

Columns and labels:
[1] = target: T1, JAK1 (Homo sapiens, UniProt P23458); test: JAK1 Ulight-JAK1 peptide assay; format: biochemical
T1 construct: Recombinant human JAK1 (catalytic domain, amino acids 866-1154; catalog number PV4774) was purchased from Invitrogen; purchased Invitrogen PV4774
T1 sequence (P23458 866-1154): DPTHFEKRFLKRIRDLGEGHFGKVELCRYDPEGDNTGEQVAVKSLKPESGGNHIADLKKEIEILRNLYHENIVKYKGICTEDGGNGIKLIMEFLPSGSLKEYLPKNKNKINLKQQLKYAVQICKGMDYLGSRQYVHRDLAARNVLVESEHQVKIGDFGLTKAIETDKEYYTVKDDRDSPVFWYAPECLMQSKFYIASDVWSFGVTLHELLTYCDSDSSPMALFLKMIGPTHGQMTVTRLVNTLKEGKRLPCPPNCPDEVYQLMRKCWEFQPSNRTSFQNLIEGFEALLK
Protocol: Recombinant human JAK1 (catalytic domain, amino acids 866-1154; catalog number PV4774) was purchased from Invitrogen. 1 ng of JAK1 was incubated with 20 nM Ulight-JAK1(tyr1023) peptide (Perkin Elmer catalog number TRF0121) in kinase reaction buffer (25 mM MOPS pH6.8, 0.01% Brij-35, 5 mM MgCl2, 2 mM DTT, 7 μM ATP) with or without 4 μL containing test compound or vehicle (DMSO, 1% final concentration), in a total volume of 20 μL, in a white 384 Opti plate (Perkin Elmer, catalog number 6007290). […] Readout is performed using the Envision with excitation at 320 nm and measuring emission at 615 nm (Perkin Elmer). Kinase activity was calculated by subtracting relative fluorescence units (RFU) obtained in the presence of a positive control inhibitor (10 μM staurosporine) from RFU obtained in the presence of vehicle. The ability of a test compound to inhibit this activity was determined as:
Percentage inhibition=((RFU determined for sample with test compound present−RFU determined for sample with positive control inhibitor) divided by (RFU determined in the presence of vehicle−RFU determined for sample with positive control inhibitor))*100.
Dose dilution series were prepared for the compounds enabling the testing of dose-response effects in the JAK1 assay and the calculation of the IC50 for the compound. […] The data are expressed as the average IC50 from the assays ±standard error of the mean.

[2] = target: T2, JAK2 (Homo sapiens, UniProt O60674); test: JAK2 Ulight-JAK1 peptide assay; format: biochemical
T2 construct: Recombinant human JAK2 catalytic domain (amino acids 808-1132; catalog number PV4210) was purchased from Invitrogen; purchased Invitrogen PV4210
T2 sequence (O60674 808-1132): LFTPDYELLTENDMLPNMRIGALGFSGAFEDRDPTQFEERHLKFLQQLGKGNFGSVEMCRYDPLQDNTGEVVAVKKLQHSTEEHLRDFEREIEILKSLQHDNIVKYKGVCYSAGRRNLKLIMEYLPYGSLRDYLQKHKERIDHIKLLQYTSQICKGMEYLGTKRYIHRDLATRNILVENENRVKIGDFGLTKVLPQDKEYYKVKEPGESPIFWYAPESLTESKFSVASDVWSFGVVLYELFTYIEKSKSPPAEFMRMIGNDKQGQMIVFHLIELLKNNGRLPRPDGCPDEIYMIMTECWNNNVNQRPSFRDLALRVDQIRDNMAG
Protocol: Recombinant human JAK2 (catalytic domain, amino acids […]; catalog number PV4210) was purchased from Invitrogen. 0.0125 mU of JAK2 was incubated with 25 nM Ulight-JAK1(tyr1023) peptide (Perkin Elmer catalog number TRF0121) in kinase reaction buffer (25 mM HEPES pH7.0, 0.01% Triton X-100, 7.5 mM MgCl2, 2 mM DTT, 7.5 μM ATP) with or without 4 μL containing test compound or vehicle (DMSO, 1% final concentration), in a total volume of 20 μL, in a white 384 Opti plate (Perkin Elmer, catalog number 6007290). After 60 min at rt, reactions were stopped by adding 20 μL/well of detection mixture (1× detection buffer (Perkin Elmer, catalog number CR97-100C), 0.5 nM Europium-anti-phosphotyrosine (PT66) (Perkin Elmer, catalog number AD0068), 10 mM EDTA). Readout is performed using the Envision with excitation at 320 nm and measuring emission at 615 nm (Perkin Elmer). Kinase activity was calculated by subtracting relative fluorescence units (RFU) obtained in the presence of a positive control inhibitor (10 μM staurosporine) from RFU obtained in the presence of vehicle. The ability of a test compound to inhibit this activity was determined as:
Percentage inhibition=((RFU determined for sample with test compound present−RFU determined for sample with positive control inhibitor) divided by (RFU determined in the presence of vehicle−RFU determined for sample with positive control inhibitor))*100. […]

[3] = target: T2, JAK2; test: JAK2 Ki determination assay (kinase tracer binding); details: kinase tracer 236 binding; read-out: Ki against JAK2
Protocol: JAK2 (Invitrogen, PV4210) was used at a final concentration of 5 nM. The binding experiment was performed in 50 mM Hepes pH 7.5, 0.01% Brij-35, 10 mM MgCl2, 1 mM EGTA using 25 nM kinase tracer 236 (Invitrogen, PV5592) and 2 nM Eu-anti-GST (Invitrogen, PV5594) with varying compound concentrations. Detection of tracer was performed according to the manufacturer's procedure.

[4] = target: T3, Recombinant human JAK3 catalytic domain (Homo sapiens, UniProt P52333); test: JAK3 inhibition assay (polyGT substrate); format: biochemical
T3 construct: Recombinant human JAK3 catalytic domain (amino acids 781-1124; catalog number PV3855) was purchased from Invitrogen; purchased Invitrogen PV3855
T3 sequence (P52333 781-1124): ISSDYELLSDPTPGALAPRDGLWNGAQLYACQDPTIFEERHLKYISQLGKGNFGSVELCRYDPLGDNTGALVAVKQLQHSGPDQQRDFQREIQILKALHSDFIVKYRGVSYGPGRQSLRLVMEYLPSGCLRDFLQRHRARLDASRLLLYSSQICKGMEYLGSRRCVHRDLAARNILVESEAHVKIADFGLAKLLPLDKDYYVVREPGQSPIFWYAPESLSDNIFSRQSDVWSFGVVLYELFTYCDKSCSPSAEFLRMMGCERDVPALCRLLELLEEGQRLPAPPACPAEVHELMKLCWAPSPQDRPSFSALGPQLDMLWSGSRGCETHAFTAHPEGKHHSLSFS
Protocol: Recombinant human JAK3 catalytic domain (amino acids 781-1124; catalog number PV3855) was purchased from Invitrogen. 0.5 ng JAK3 protein was incubated with 2.5 μg polyGT substrate (Sigma catalog number P0275) in kinase reaction buffer (25 mM Tris pH 7.5, 0.5 mM EGTA, 10 mM MgCl2, 2.5 mM DTT, 0.5 mM Na3VO4, 5 mM b-glycerolphosphate, 0.01% Triton X-100, 1 μM non-radioactive ATP, 0.25 μCi ^33P-gamma-ATP (GE Healthcare, catalog number AH9968) final concentrations) with or without 5 μL containing test compound or vehicle (DMSO, 1% final concentration), in a total volume of 25 μL, in a polypropylene 96-well plate (Greiner, V-bottom). After 45 min at 30° C., reactions were stopped by adding 25 μL/well of 150 mM phosphoric acid. […] 40 μL/well of Microscint-20 was added, the top of the plates was sealed and readout was performed using the Topcount (Perkin Elmer). Kinase activity was calculated by subtracting counts per min (cpm) obtained in the presence of a positive control inhibitor (10 μM staurosporine) from cpm obtained in the presence of vehicle. The ability of a test compound to inhibit this activity was determined as:
Percentage inhibition=((cpm determined for sample with test compound present−cpm determined for sample with positive control inhibitor) divided by (cpm determined in the presence of vehicle−cpm determined for sample with positive control inhibitor))*100. […]

For `CCc1cc(C2=CCN(C(=O)CC#N)CC2)ccc1N(C)c1cc2c(cn1)ncn2C` [Compound 1], the “selectivity for JAK1 vs the other JAK family members (JAK2, JAK3, and TYK2)” value [1] was “at least 9 fold”, the IC50 ([1]; Ulight-JAK1(tyr1023) peptide, 7 μM ATP, individual determinations, read-out: IC50 against JAK1) was 1.37 nM and 1.47 nM and 1.6 nM and 3.08 nM and 1.13 nM and 1.45 nM (2×) and 1.92 nM and 2.34 nM and 2.42 nM and 1.42 nM and 4.09 nM and 4.14 nM and 3.63 nM and 3.46 nM and 2.31 nM and 0.815 nM and 6.84 nM and 6.14 nM and 0.756 nM and the “JAK1 selectivity vs JAK2” value [2] was 28 fold. The IC50 ([2]; Ulight-JAK1(tyr1023) peptide, 7.5 μM ATP, individual determinations, read-out: IC50 against JAK2) was 61.5 nM and 108 nM and 101 nM and 42.9 nM and 26.4 nM and 155 nM and 35.7 nM and 30.5 nM, the Ki [3] was 25.1 nM and the “JAK1 selectivity vs JAK3” value [4] was 30 fold. For the same molecule, the IC50 ([4]; polyGT substrate, 1 μM ATP, individual determinations, read-out: IC50 against JAK3) was 160 nM and 65.2 nM and 142 nM and 66.9 nM and 30.9 nM and 32.8 nM and 38 nM and 66.6 nM.
